Assay [1] concerns the target T1, HiBit-KRAS^G12C (Homo sapiens, UniProt P01116, G12C). Briefly: HiBit degradation assay in MiaPaCa-2 HiBit-KRas^G12C cells. In kind it is cell-based. The settings on record: 24 hours; for Dmax: MIA PaCa-2, MiaPaCa-2 HiBit-KRas^G12C cells, maximum degradation; for DC50: MiaPaCa-2 HiBit-KRas^G12C cells. As for the experimental part: Reagents. SW1573 (CRL-2170) and MiaPaCa-2 (CRL-1420) cells were purchased from ATCC. Both cell lines are […] for the G12C mutation in KRAS. SW1573 cells were cultured in DMEM+F12+Glutamax (+Sodium Bicarbonate, +sodium pyruvate, Thermofisher scientific, #10565) supplemented with 10% FBS (Thermofisher scientific, #2060357) and 1% Antibiotic-Antimycotic (Thermofisher scientific, #15240096). MiaPaCa-2 cells were cultured in DMEM+Glutamax media (Thermofisher scientific, #10566) supplemented with 10% FBS (Thermofisher scientific, #2060357) and 1% Antibiotic-Antimycotic (Thermofisher scientific, #15240096). For degradation assays, 384 well plates were purchased from Corning (Corning® CellBIND® 384-well Flat Clear Bottom Black Polystyrene Microplates, Low Flange, #3770). Gambogic acid was purchased from Selleckchem (#S2448). Alamar blue was purchased from Thermofisher scientific (A50101) and used according to manufacturer instructions. The Nano-Glo® HiBit Lytic Detection System and Nano-Glo® HiBit Blotting System were purchased from Promega (#N3050 and #N2410) and used according to manufacturer instructions.
To create the MiaPaCa-2 HiBit-KRAS^G12C cell line, CRISPR-Cas9 was used to insert the HiBit tag onto the N-terminus of one or more of the four endogenous KRAS^G12C alleles. After knock-in of the tag, individual clones were isolated by single cell dilution and screened for HiBit insertion by PCR. Clones containing the HiBit tag were sequenced and one was identified that contained the desired HiBit-KRAS^G12C sequence at one allele while the remaining three KRAS^G12C alleles were unaffected. This line was used for all subsequent studies.
Either SW1573 HiBit-KRas^G12C or MiaPaCa-2 HiBit-KRas^G12C cells were plated at 9000 cells/well in a 384 well plate (Corning #3770). Exemplary heterobifunctional molecules and positive controls were diluted in the appropriate cell media and applied to the plated cells resulting in a final concentration titration of 10 μM to 20 nM in either 0.1% or 0.5% dimethyl sulfoxide (DMSO). Gambogic acid was used as a positive control for cytotoxicity and titrated from 10 μM to 78 nM. All assays were performed in triplicate. Cells were treated with compounds for 24 hours at 37° C. in an incubator containing 5% CO2. Following treatment, alamar blue was used to determine if any compounds led to a loss in cell viability after 24 hours. The 10× alamar blue reagent was added to a final concentration of 1× as recommended by the manufacturer and cells were returned to the incubator for 4 hours. Plates were then allowed to equilibrate to room temperature and fluorescence was measured using a Perkin-Elmer EnVision. After completion of the fluorescence read, the liquid from each well was removed and the cells were washed with PBS. The Nano-Glo® HiBiT detection reagent was prepared according to the manufacturer's instructions and added to each well after the PBS wash was removed. Following incubation at room temperature for 45 minutes, the luminescence was read using the ultra-sensitive luminescence aperture on the Envision instrument.
Fluorescence values from the alamar blue treatment were normalized to the DMSO only control for each compound titration. We hypothesized that compounds that led to a ≥50% loss in cell viability of the KRAS-independent SW1573 HiBit-KRas^G12C cells were likely generally cytotoxic and loss of HiBit-KRAS^G12C signal from these compounds may be due to lower cell number and not specific KRAS^G12C degradation. These points were therefore excluded from the data analysis for degradation. […]
On the technique in general: The HiBiT peptide binds its large partner to form an active luciferase.

Assay [2] has as its target T1, HiBit-KRAS^G12C. Briefly: HiBit degradation assay in SW1573 HiBit-KRas^G12C cells. On the set-up: expressed in transfected cells; host or cells: SW1573 (clone E6), modified pcDNA3.1 vector, TK promoter. The settings on record: 24 hours; for Dmax: SW1573, SW1573 HiBit-KRas^G12C; for DC50: SW1573 HiBit-KRas^G12C. Type of assay: cell-based. The method, boiled down:
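SW1573 cells stably expressing N-terminally HiBit-tagged KRAS G12C, under the TK promoter, were treated 24 h at 37 °C with 10 μM to 20 nM compound in 0.1% or 0.5% DMSO. Residual HiBit luminescence normalised to DMSO and fitted with a 4-parameter model for DC50 and Dmax. Points with ≥50% viability loss (alamar blue) excluded.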

Where [3] appears, read: 0.5% DMSO, read-out: KRas^G12C-HiBiT (MiaPaCa; 0.5% DMSO) DMax.
[4] abbreviates: read-out: KRas^G12C-HiBiT (MiaPaCa; 0.5% DMSO) IC50, 0.5% DMSO.
The mark [5] stands for this setting: 0.5% DMSO, read-out: KRas^G12C-HiBiT (SW1573; 0.5% DMSO) Dmax**.
[6] abbreviates: read-out: KRas^G12C-HiBiT (SW1573; 0.5% DMSO) IC50***, 0.5% DMSO.
[7] abbreviates: 0.1% DMSO, read-out: KRas^G12C-HiBiT (MiaPaCa; 0.1% DMSO) DMax.
[8] abbreviates: 0.1% DMSO, read-out: KRas^G12C-HiBit (SW1573; 0.1% DMSO) Dmax**.
[9] abbreviates: 0.1% DMSO, read-out: KRas^G12C-HIBit (SW1573; 0.1% DMSO) DC50*.

Each structure is given as a SMILES string.

T1 sequence (P01116 1-186 isoform P01116-2 G12C limits assumed): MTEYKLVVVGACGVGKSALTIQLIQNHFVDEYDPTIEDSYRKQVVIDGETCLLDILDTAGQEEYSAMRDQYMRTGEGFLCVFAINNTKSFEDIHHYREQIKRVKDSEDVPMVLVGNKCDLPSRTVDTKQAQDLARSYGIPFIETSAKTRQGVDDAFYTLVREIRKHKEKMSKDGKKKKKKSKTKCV

Consider `C=CC(=O)N1CCN(c2nc(O[C@@H]3CCC[C@H]3N3CCC(COCC(=O)N[C@H](C(=O)N4C[C@H](O)C[C@H]4C(=O)N[C@@H](C)c4ccc(-c5scnc5C)cc4)C(C)(C)C)CC3)nc3c(F)c(-c4cc(O)cc5ccccc45)c(Cl)cc23)C[C@@H]1CC#N` [Compound 130, (2S,4R)-1-[(2S)-2-[2-({1-[(1R,2R)-2-({6-chloro-4-[(3S)-3-(cyanomethyl)-4-(prop-2-enoyl)piperazin-1-yl]-8-fluoro-7-(3-hydroxynaphthalen-1-yl)quinazolin-2-yl}oxy)cyclopentyl]piperidin-4-yl}methoxy)acetamido]-3,3-dimethylbutanoyl]-4-hydroxy-N-[(1S)-1-[4-(4-methyl-1,3-thiazol-5-yl)phenyl]ethyl]pyrrolidine-2-carboxamide], for which the Dmax was 35 to 70% at HiBit-KRAS^G12C [1] (setting [3]) and greater than 70% on HiBit-KRAS^G12C [2] (setting [5]). Further, the DC50 on HiBit-KRAS^G12C [1] (setting [4]) and at HiBit-KRAS^G12C [2] (setting [6]) was 100 to 1000 nM each time.

Regarding `C=CC(=O)N1CCN(c2nc(O[C@H](C)CN3CCC(CCC(=O)N[C@H](C(=O)N4C[C@H](O)C[C@H]4C(=O)N[C@@H](C)c4ccc(-c5scnc5C)cc4)C(C)(C)C)CC3)nc3c(F)c(-c4cc(O)cc5ccccc45)c(Cl)cc23)CC1` [Compound 37, (2S,4R)-1-[(2S)-2-(3-{1-[(2R)-2-{[6-chloro-8-fluoro-7-(3-hydroxynaphthalen-1-yl)-4-[4-(prop-2-enoyl)piperazin-1-yl]quinazolin-2-yl]oxy}propyl]piperidin-4-yl}propanamido)-3,3-dimethylbutanoyl]-4-hydroxy-N-[(1S)-1-[4-(4-methyl-1,3-thiazol-5-yl)phenyl]ethyl]pyrrolidine-2-carboxamide], the results for the Dmax at HiBit-KRAS^G12C [1] (setting [7]) and at HiBit-KRAS^G12C [2] (setting [8]) were less than 35% and 35 to 70%, respectively. Besides, the DC50 on HiBit-KRAS^G12C [2] (setting [9]) is 100 to 1000 nM.

As for `C=CC(=O)N1CCN(c2nc(O[C@H](C)CN3CC(OCC(=O)N[C@H](C(=O)N4C[C@H](O)C[C@H]4C(=O)N[C@@H](C)c4ccc(-c5scnc5C)cc4)C(C)(C)C)C3)nc3c(F)c(-c4cc(O)cc5ccccc45)c(Cl)cc23)CC1` [Compound 41, (2S,4R)-1-[(2S)-2-[2-({1-[(2R)-2-{[6-chloro-8-fluoro-7-(3-hydroxynaphthalen-1-yl)-4-[4-(prop-2-enoyl)piperazin-1-yl]quinazolin-2-yl]oxy}propyl]azetidin-3-yl}oxy)acetamido]-3,3-dimethylbutanoyl]-4-hydroxy-N-[(1S)-1-[4-(4-methyl-1,3-thiazol-5-yl)phenyl]ethyl]pyrrolidine-2-carboxamide], the Dmax at HiBit-KRAS^G12C [1] (setting [7]) was less than 35%; on HiBit-KRAS^G12C [2] (setting [8]), 35 to 70%. In addition, the DC50 on HiBit-KRAS^G12C [1] (read-out: KRas^G12C-HiBiT (MiaPaCa; 0.1% DMSO) IC50, 0.1% DMSO) is 100 to 1000 nM; on HiBit-KRAS^G12C [2] (setting [9]), greater than 1000 nM.

For `C=C(F)C(=O)N1CCN(c2nc(OCCN3CCC4(CC3)CN(c3cc([C@H](C(=O)N5C[C@H](O)C[C@H]5C(=O)N[C@@H](C)c5ccc(-c6ccnn6C)cc5)C(C)C)on3)C4)nc3c(F)c(-c4cc(O)cc5ccccc45)c(Cl)cc23)C[C@@H]1CC#N` (atropisomer, axis not shown) [Compound 112, (2S,4R)-1-[(2R)-2-(3-{7-[2-({6-chloro-4-[(3S)-3-(cyanomethyl)-4-(2-fluoroprop-2-enoyl)piperazin-1-yl]-8-fluoro-7-(3-hydroxynaphthalen-1-yl)quinazolin-2-yl}oxy)ethyl]-2,7-diazaspiro[3.5]nonan-2-yl}-1,2-oxazol-5-yl)-3-methylbutanoyl]-4-hydroxy-N-[(1S)-1-[4-(1-methyl-1H-pyrazol-5-yl)phenyl]ethyl]pyrrolidine-2-carboxamide], the Dmax on HiBit-KRAS^G12C [1] (setting [3]) and on HiBit-KRAS^G12C [2] (setting [5]) was greater than 70% in each case. Further, the DC50 on HiBit-KRAS^G12C [1] (setting [4]) and at HiBit-KRAS^G12C [2] (setting [6]) was 100 to 1000 nM each time.

For `C=CC(=O)N1CCN(c2nc(O[C@H](C)CN3CCC(OCCOCC(=O)N[C@H](C(=O)N4C[C@H](O)C[C@H]4C(=O)N[C@@H](C)c4ccc(-c5scnc5C)cc4)C(C)(C)C)CC3)nc3c2CCN(c2cccc4ccccc24)C3)C[C@@H]1CC#N` [Compound 58, (2S,4R)-1-[(2S)-2-{2-[2-({1-[(2R)-2-({4-[(3S)-3-(cyanomethyl)-4-(prop-2-enoyl)piperazin-1-yl]-7-(naphthalen-1-yl)-5H,6H,7H,8H-pyrido[3,4-d]pyrimidin-2-yl}oxy)propyl]piperidin-4-yl}oxy)ethoxy]acetamido}-3,3-dimethylbutanoyl]-4-hydroxy-N-[(1S)-1-[4-(4-methyl-1,3-thiazol-5-yl)phenyl]ethyl]pyrrolidine-2-carboxamide], the DC50 on HiBit-KRAS^G12C [2] (setting [9]) was greater than 1000 nM.

Take `C=CC(=O)N1CCN(c2nc(OCCN3CCC(OCCOCC(=O)N[C@H](C(=O)N4C[C@H](O)C[C@H]4C(=O)N[C@@H](C)c4ccc(-c5scnc5C)cc4)C(C)(C)C)CC3)nc3c2CCN(c2cccc4cccc(C)c24)C3)C[C@@H]1CC#N` [Compound 30, (2S,4R)-1-[(2S)-2-{2-[2-({1-[2-({4-[(3S)-3-(cyanomethyl)-4-(prop-2-enoyl)piperazin-1-yl]-7-(8-methylnaphthalen-1-yl)-5H,6H,7H,8H-pyrido[3,4-d]pyrimidin-2-yl}oxy)ethyl]piperidin-4-yl}oxy)ethoxy]acetamido}-3,3-dimethylbutanoyl]-4-hydroxy-N-[(1S)-1-[4-(4-methyl-1,3-thiazol-5-yl)phenyl]ethyl]pyrrolidine-2-carboxamide]: the Dmax on HiBit-KRAS^G12C [2] (setting [8]) is less than 35%. For the same molecule, at HiBit-KRAS^G12C [2] (setting [9]), the DC50 was greater than 1000 nM.

As to `C=CC(=O)N1CCN(c2nc(O[C@H](C)CN3CCC(OCCOCC(=O)N[C@H](C(=O)N4C[C@H](O)C[C@H]4C(=O)N[C@@H](C)c4ccc(-c5scnc5C)cc4)C(C)(C)C)CC3)nc3c(Oc4c(Cl)c(F)cc5[nH]ncc45)nc(Cl)cc23)CC1` [Compound 26, (2S,4R)-1-[(2S)-2-{2-[2-({1-[(2R)-2-({6-chloro-8-[(5-chloro-6-fluoro-1H-indazol-4-yl)oxy]-4-[4-(prop-2-enoyl)piperazin-1-yl]pyrido[3,4-d]pyrimidin-2-yl}oxy)propyl]piperidin-4-yl}oxy)ethoxy]acetamido}-3,3-dimethylbutanoyl]-4-hydroxy-N-[(1S)-1-[4-(4-methyl-1,3-thiazol-5-yl)phenyl]ethyl]pyrrolidine-2-carboxamide], the Dmax at HiBit-KRAS^G12C [2] (setting [8]) lay in the range of 35 to 70%. The DC50 on HiBit-KRAS^G12C [2] (setting [9]) is greater than 1000 nM.

These data come from patent US20220370416A1, “COMPOUNDS AND METHODS FOR TARGETED DEGRADATION OF KRAS” (Arvinas Operations, Inc., priority 2020, published 2022).
